Test results published in ChEMBL document CHEMBL1201862, “PubChem BioAssay data set” (2004).
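Method: 48-hour compound exposure of cells in 96-well plates, five concentrations, linear interpolation of endpoints. GI50 is the concentration that inhibits growth by half.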 Activity calls are given as the source filed them. Cut-off read from the data, not from the text of the source: active = GI50 up to about 1.1 µM and inactive = higher.

Legend:
Test in all cases: NCI tumour cell line growth inhibition, 48 h
[1] = system: NCI-H522
[2] = system: HCT-116
[3] = system: SNB-75
[4] = system: NCI-H460
[5] = system: ACHN
[6] = system: A549
[7] = system: RXF 393
[8] = system: MOLT-4
[9] = system: HOP-62
[10] = system: OVCAR-4
[11] = system: OVCAR-8
[12] = system: OVCAR-3
[13] = system: SK-MEL-2
[14] = system: KM12
[15] = system: SN12C
[16] = system: UACC-62
[17] = system: OVCAR-5
[18] = system: SW-620
[19] = system: SNB-19
[20] = system: HOP-92

| SMILES | GI50 [1] | GI50 [2] | GI50 [3] | GI50 [4] | GI50 [5] | GI50 [6] | GI50 [7] | GI50 [8] | GI50 [9] | GI50 [10] | GI50 [11] | GI50 [12] | GI50 [13] | GI50 [14] | GI50 [15] | GI50 [16] | GI50 [17] | GI50 [18] | GI50 [19] | GI50 [20] |
| --- | --- | --- | --- | --- | --- | --- | --- | --- | --- | --- | --- | --- | --- | --- | --- | --- | --- | --- | --- | --- |
| COC(=O)C1(OC(=O)Sc2ccccc2)CCN(C)CC1 | 16.2 µM (inactive) | 14.9 µM (inactive) | 16.8 µM (inactive) | 23.6 µM (inactive) | 15.7 µM (inactive) | 11.4 µM (inactive) | 14.3 µM (inactive) | 6.68 µM (inactive) | 32.1 µM (inactive) | 23.2 µM (inactive) | 16.7 µM (inactive) | 11 µM (inactive) | 58.3 µM (inactive) | 10.9 µM (inactive) | 3.9 µM (inactive) | 21.3 µM (inactive) | 35.3 µM (inactive) | 21.7 µM (inactive) | 28.3 µM (inactive) | – |
| CC1CCC2C(C(=O)O[C@H]3C4CCO[C@@H](OC5OC(CO)C(O)C(O)C5O)C4[C@@]4(CO)O[C@@H]34)=CO[C@@H](OC3OC(CO)C(O)C(O)C3O)C12 (some centres not stated) | – | > 10 µM (inactive) | > 10 µM (inactive) | > 10 µM (inactive) | > 10 µM (inactive) | > 10 µM (inactive) | > 10 µM (inactive) | > 10 µM (inactive) | > 10 µM (inactive) | – | > 10 µM (inactive) | > 10 µM (inactive) | > 10 µM (inactive) | > 10 µM (inactive) | > 10 µM (inactive) | > 10 µM (inactive) | > 10 µM (inactive) | > 10 µM (inactive) | > 10 µM (inactive) | > 10 µM (inactive) |
| CC(C)(C)OC(=O)NC(Cc1ccccc1)C(=O)N[C@H]1c2ccsc2/C(=N/O)[C@H]1O (some centres not stated) | – | > 100 µM (inactive) | – | > 100 µM (inactive) | – | > 100 µM (inactive) | > 100 µM (inactive) | 83 µM (inactive) | > 100 µM (inactive) | 35.2 µM (inactive) | > 100 µM (inactive) | > 100 µM (inactive) | > 100 µM (inactive) | – | > 100 µM (inactive) | > 100 µM (inactive) | > 100 µM (inactive) | > 100 µM (inactive) | > 100 µM (inactive) | > 100 µM (inactive) |
| N#CC(=S)Nc1ccc(F)cc1 | – | 86.1 µM (inactive) | > 100 µM (inactive) | 55.3 µM (inactive) | 60 µM (inactive) | 33.6 µM (inactive) | 42.1 µM (inactive) | 31.3 µM (inactive) | > 100 µM (inactive) | 28.6 µM (inactive) | 96.2 µM (inactive) | 56.4 µM (inactive) | > 100 µM (inactive) | 70.3 µM (inactive) | > 100 µM (inactive) | 40.2 µM (inactive) | 83.9 µM (inactive) | 60.8 µM (inactive) | > 100 µM (inactive) | 19.4 µM (inactive) |
| COC(=O)C1=C(O)c2cc3c(cc2[C@H](c2cc(OC)c(OC)c(OC)c2)C1C(=O)OC)OCO3 (some centres not stated) | – | 34.7 µM (inactive) | 22.8 µM (inactive) | 61 µM (inactive) | 22.1 µM (inactive) | > 100 µM (inactive) | 30.2 µM (inactive) | 58.9 µM (inactive) | > 100 µM (inactive) | 30.2 µM (inactive) | 39.5 µM (inactive) | 30.4 µM (inactive) | – | 35.2 µM (inactive) | 25.5 µM (inactive) | 30.1 µM (inactive) | > 100 µM (inactive) | 80.2 µM (inactive) | > 100 µM (inactive) | 33.7 µM (inactive) |
| O=C(NNc1ccc([N+](=O)[O-])cc1)C1OC(CO)C(O)C1O (configuration not stated) | – | > 100 µM (inactive) | > 100 µM (inactive) | > 100 µM (inactive) | > 100 µM (inactive) | > 100 µM (inactive) | > 100 µM (inactive) | > 100 µM (inactive) | > 100 µM (inactive) | > 100 µM (inactive) | > 100 µM (inactive) | > 100 µM (inactive) | > 100 µM (inactive) | 81.8 µM (inactive) | > 100 µM (inactive) | > 100 µM (inactive) | > 100 µM (inactive) | 21.8 µM (inactive) | > 100 µM (inactive) | > 100 µM (inactive) |
| O=C(O)CCCCCCC[C@H]1S[C@H]1CCCCCCO | – | > 100 µM (inactive) | – | – | – | – | > 100 µM (inactive) | > 100 µM (inactive) | > 100 µM (inactive) | > 100 µM (inactive) | > 100 µM (inactive) | > 100 µM (inactive) | > 100 µM (inactive) | > 100 µM (inactive) | – | > 100 µM (inactive) | > 100 µM (inactive) | – | > 100 µM (inactive) | < 0.01 µM (active) |
| COc1cc(/C=C/C(=O)CC(=O)/C=C/c2ccc(O)c(OC)c2)ccc1O [CURCUMIN] | 5.33 µM (inactive) | 2.92 µM (inactive) | 6.84 µM (inactive) | 8.07 µM (inactive) | 12.4 µM (inactive) | 12.8 µM (inactive) | 3 µM (inactive) | 4.68 µM (inactive) | 3.63 µM (inactive) | 9.33 µM (inactive) | 7.35 µM (inactive) | 6.64 µM (inactive) | 16.5 µM (inactive) | 5.45 µM (inactive) | 8.41 µM (inactive) | 6.49 µM (inactive) | 16.6 µM (inactive) | 4.19 µM (inactive) | 9.42 µM (inactive) | – |
| O=C1c2ccccc2C(=O)c2c1sc1nc3ccccc3n21 | – | 1.7 µM (inactive) | 13.1 µM (inactive) | 1.79 µM (inactive) | 2.23 µM (inactive) | 10.7 µM (inactive) | 1.79 µM (inactive) | 1.97 µM (inactive) | – | – | 1.9 µM (inactive) | 2.86 µM (inactive) | – | 1.83 µM (inactive) | 1.52 µM (inactive) | 1.87 µM (inactive) | 2.45 µM (inactive) | – | 2.11 µM (inactive) | 10.4 µM (inactive) |
| CN(C)CCNC(=O)c1cccc2cc3cc(O)ccc3nc12 | – | 0.558 µM (active) | 1.93 µM (inactive) | 0.361 µM (active) | – | 0.811 µM (active) | 1.11 µM (active) | 0.147 µM (active) | 1.06 µM (active) | 2 µM (inactive) | 0.796 µM (active) | 1.13 µM (inactive) | 2.14 µM (inactive) | 2.12 µM (inactive) | 1.1 µM (active) | 1.33 µM (inactive) | 1.46 µM (inactive) | 0.611 µM (active) | 0.869 µM (active) | 0.792 µM (active) |
| Cc1ccc2nc(NC(=O)/C(Cc3nc4ccc(Cl)cc4nc3O)=N\NC(C)(C)C)sc2c1 | – | > 100 µM (inactive) | 15.5 µM (inactive) | > 100 µM (inactive) | > 100 µM (inactive) | > 100 µM (inactive) | > 100 µM (inactive) | > 100 µM (inactive) | – | 12.5 µM (inactive) | > 100 µM (inactive) | > 100 µM (inactive) | > 100 µM (inactive) | > 100 µM (inactive) | > 100 µM (inactive) | > 100 µM (inactive) | > 100 µM (inactive) | > 100 µM (inactive) | > 100 µM (inactive) | > 100 µM (inactive) |
